Test results taken from patent US20210015098A1, “MOLECULES HAVING PESTICIDAL UTILITY, AND INTERMEDIATES, COMPOSITIONS, AND PROCESSES, RELATED THERETO” (DOW AGROSCIENCES LLC, priority 2018, published 2021).

Assays:
Type in all cases: in vivo
[1] = system: Beet Armyworm (Spodoptera exigua, LAPHEG); test: Bioassays on Beet Armyworm (BAW), 128-well diet tray assay; conditions: for pest or weed control at 50 µg/cm2: Beet Armyworm, Table ABC Biological Results, read-out: BAW (rating); for mortality at 50 µg/cm2: 168 h, 50 μg/cm^2 on artificial diet, second instar larvae, 25° C., five to seven days, read-out: BAW % Control (or Mortality) rating
In short: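 Diet-overlay assay: 50 μg/cm^2 compound applied in 90:10 acetone-water to artificial diet, allowed to dry, then infested with 1–5 L2 larvae/well; 8 wells/compound; covered, vented; 25° C., 14:10 L:D, 5–7 d; % mortality per well, averaged.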

[2] = system: Cabbage Looper (Trichoplusia ni, TRIPNI); test: Bioassays on Cabbage Looper (CL), 128-well diet tray assay; conditions: for pest or weed control at 50 µg/cm2: Cabbage Looper, Table ABC Biological Results, read-out: CL (rating); for mortality at 50 µg/cm2: 168 h, 50 μg/cm^2 on artificial diet, second instar larvae, 25° C., five to seven days, read-out: CL % Control (or Mortality) rating
In short: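 Percent mortality, averaged across eight replicate wells, after second-instar larvae (1–5 per well) fed for five to seven days on diet dosed at 50 μg/cm^2. Compound was applied in acetone-water 90:10 and dried; trays kept vented at 25° C under 14:10 photoperiod.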

[3] = system: Green Peach Aphid (Myzus persicae, MYZUPE); test: Bioassays on Green Peach Aphid (GPA), foliar spray on cabbage seedlings; conditions: for GPA (rating): Green Peach Aphid, Table ABC Biological Results
Protocol: Certain molecules disclosed in this document were tested against GPA using procedures described in the following example. In the reporting of the results, the “GPA & YFM Rating Table” was used (See Table Section).
Cabbage seedlings grown in 3-inch pots, with 2-3 small (3-5 cm) true leaves, were used as test substrate. The seedlings were infested with 20-50 GPA (wingless adult and nymph stages) one day prior to chemical application. Four pots with individual seedlings were used for each treatment. Test molecules (2 mg) were dissolved in 2 mL of acetone/methanol (1:1) solvent, forming stock solutions of 1000 ppm test molecule. The stock solutions were diluted 5× with 0.025% Tween 20 in water to obtain the solution at 200 ppm test molecule. A hand-held aspirator-type sprayer was used for spraying a solution to both sides of […] leaves until runoff. Reference plants (solvent check) were sprayed with the diluent only containing 20% by volume of acetone/methanol (1:1) solvent. Treated plants were held in a holding room for three days at approximately 25° C. and ambient relative humidity (RH) prior to grading. Evaluation was conducted by counting the number of live aphids per plant under a microscope. Percent control was measured using Abbott's correction formula (W. S. Abbott, “A Method of Computing the Effectiveness of an Insecticide” J. Econ. Entomol. 18 (1925), pp. 265-267) as follows. Corrected % Control=100*(X−Y)/X where X=No. of live aphids on solvent check plants and Y=No. of live aphids on treated plants. The results are indicated in the table entitled “Table ABC: Biological Results” (See Table Section).

[4] = system: Yellow Fever Mosquito (Aedes aegypti, AEDSAE); conditions: for YFM (rating): Yellow Fever Mosquito, Table ABC Biological Results; for YFM % Control (or Mortality) rating: about 1 day-old larvae, 96-well plate, room temperature, 3 days
Protocol: Certain molecules disclosed in this document were tested against YFM using procedures described in the following paragraph. In the reporting of the results, the “GPA & YFM Rating Table” was used (See Table Section).
Master plates containing 400 μg of a molecule dissolved in 100 μL of dimethyl sulfoxide (DMSO) (equivalent to a 4000 ppm solution) are used. A master plate of assembled molecules contains 15 μL per well. To this plate, 135 μL of a 90:10 water/acetone mixture is added to each well. A robot (Biomek® NXP Laboratory Automation Workstation) is programmed to dispense 15 μL aspirations from the master plate into an empty 96-well shallow plate (“daughter” plate). There are 6 reps (“daughter” plates) created per master. The created “daughter” plates are then immediately infested with YFM larvae.
The day before plates are to be treated, mosquito eggs are placed in Millipore water containing liver powder to begin hatching (4 g into 400 mL). After the “daughter” plates are created using the robot, they are infested with 220 μL of the liver powder/larval mosquito mixture (about 1 day-old larvae). After plates are infested with mosquito larvae, a non-evaporative lid is used to cover the plate to reduce drying. Plates are held at room temperature for 3 days prior to grading. After 3 days, each well is observed and scored based on mortality. The results are indicated in the table entitled “Table ABC: Biological Results” (See Table Section).

| Structure (SMILES) | pest or weed control at 50 µg/cm2 [1] [%] | pest or weed control at 50 µg/cm2 [2] [%] | GPA (rating) [3] | YFM (rating) [4] | mortality at 50 µg/cm2 [1] [%] | mortality at 50 µg/cm2 [2] [%] | YFM % Control (or Mortality) rating [4] | mortality at 200 ppm ([3]; Myzus persicae, 72 h, 200 ppm foliar spray on cabbage seedlings, three days, Abbott corrected % control, read-out: GPA % Control (or Mortality) rating) [%] |
| --- | --- | --- | --- | --- | --- | --- | --- | --- |
| C=CCSCC(=O)Nc1c(F)ccc(NC(=O)c2cc(NC(=O)[C@H]3[C@H](c4ccc(F)c(C(F)(F)F)c4)C3(Cl)Cl)ccc2Cl)c1F [F3, N-(3-(2-(Allylthio)acetamido)-2,4-difluorophenyl)-2-chloro-5-((1R,3R)-2,2-dichloro-3-(4-fluoro-3-(trifluoromethyl)phenyl)cyclopropane-1-carboxamido)benzamide] | 50 to 100 | 50 to 100 | B (More than 0-Less than 80) | – | – | – | – | – |
| CC[S+]([O-])C(C)C(=O)Nc1c(F)ccc(NC(=O)c2cc(NC(=O)[C@H]3[C@H](c4ccc(F)c(C(F)(F)F)c4)C3(Cl)Cl)ccc2Cl)c1F (stereo partly drawn) [F34, 2-chloro-5-((R,3R)-2,2-dichloro-3-(4-fluoro-3-(trifluoromethyl)phenyl)cyclopropane-1-carboxamido)-N-(3-(2-(ethylsulfinyl)propanamido)-2,4-difluorophenyl)benzamide] | 50 to 100 | 50 to 100 | B (More than 0-Less than 80) | A (80-100) | – | – | – | – |
| O=C(CSC(F)(F)F)Nc1c(F)ccc(NC(=O)c2cc(NC(=O)[C@H]3[C@H](c4ccc(F)c(C(F)(F)F)c4)C3(Cl)Cl)ccc2Cl)c1F [F17, 2-Chloro-5-((1R,3R)-2,2-dichloro-3-(4-fluoro-3-(trifluoromethyl)phenyl)cyclopropane-1-carboxamido)-N-(2,4-difluoro-3-(2-((trifluoromethyl)thio)acetamido)phenyl)benzamide] | 50 to 100 | 50 to 100 | – | A (80-100) | – | – | – | – |
| Nc1c(F)ccc(NC(=O)c2cc(NC(=O)[C@H]3[C@H](c4ccc(F)c(C(F)(F)F)c4)C3(Cl)Cl)ccc2Cl)c1F [DP5, N-(3-Amino-2,4-difluorophenyl)-2-chloro-5-((1R,3R)-2,2-dichloro-3-(4-fluoro-3-(trifluoromethyl)phenyl)cyclopropanecarboxamido)benzamide] | – | – | – | – | 50 to 100 | 50 to 100 | A (80-100) | – |
| O=C(CCSCCC(F)(F)F)Nc1c(F)ccc(NC(=O)c2cc(NC(=O)[C@H]3[C@H](c4ccc(F)c(C(F)(F)F)c4)C3(Cl)Cl)ccc2Cl)c1F [F21, 2-Chloro-5-((1R,3R)-2,2-dichloro-3-(4-fluoro-3-(trifluoromethyl)phenyl)cyclopropane-1-carboxamido)-N-(2,4-difluoro-3-(3-((3,3,3-trifluoropropyl)thio)propanamido)phenyl)benzamide] | 50 to 100 | 50 to 100 | – | A (80-100) | – | – | – | – |
| Nc1c(F)ccc(NC(=O)c2cc(NC(=O)[C@H]3[C@H](c4cccc(C(F)(F)F)c4)C3(Cl)Cl)ccc2Cl)c1F [DP6, N-(3-Amino-2,4-difluorophenyl)-2-chloro-5-((1R,3R)-2,2-dichloro-3-(3-(trifluoromethyl)phenyl)cyclopropane-1-carboxamido)benzamide] | – | – | – | – | 50 to 100 | 50 to 100 | B (More than 0-Less than 80) | 80 to 100 |
| CC(SC(F)(F)F)C(=O)Nc1c(F)ccc(NC(=O)c2cc(NC(=O)[C@H]3[C@H](c4ccc(F)c(C(F)(F)F)c4)C3(Cl)Cl)ccc2Cl)c1F (stereo partly drawn) [F16, 2-Chloro-5-((1R,3R)-2,2-dichloro-3-(4-fluoro-3-(trifluoromethyl)phenyl)cyclopropane-1-carboxamido)-N-(2,4-difluoro-3-(2-((trifluoromethyl)thio)propanamido)phenyl)benzamide] | 50 to 100 | 50 to 100 | – | A (80-100) | – | – | – | – |
